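Five compound concentrations were applied to cells in 96-well plates for 48 hours; endpoints were derived by simple linear interpolation of the resulting dose-response curve. GI50: concentration for 50% inhibition of growth. TGI: concentration producing complete growth inhibition.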
Experiments:
Experiment in all cases: NCI anticancer screen, dose series, 48 h
HOP-92 NSCLC = tested on: HOP-92 NSCLC
NCI-H23 lung = tested on: NCI-H23 lung
OVCAR-8 ovarian = tested on: OVCAR-8 ovarian
SF-295 CNS = tested on: SF-295 CNS
SK-MEL-5 melanoma = tested on: SK-MEL-5 melanoma
SNB-19 CNS = tested on: SNB-19 CNS
SR leukemia = tested on: SR leukemia
NCI/ADR-RES ovarian = tested on: NCI/ADR-RES ovarian
RXF 393 renal = tested on: RXF 393 renal

SMILES: NC12CC3CC(C1)CC(C(=O)O)(C3)C2
- TGI (HOP-92 NSCLC): > 100 µM
- TGI (NCI-H23 lung): > 100 µM
- TGI (OVCAR-8 ovarian): > 100 µM
- TGI (SF-295 CNS): > 100 µM
- TGI (SK-MEL-5 melanoma): > 100 µM
- TGI (SNB-19 CNS): > 100 µM
- TGI (SR leukemia): > 100 µM

SMILES: O=C(Nc1ccncc1)C(=O)c1cn(S(=O)(=O)c2cccc(F)c2)c2ccccc12
- GI50 (NCI-H23 lung): 2.43 µM
- TGI (NCI-H23 lung): > 100 µM
- GI50 (NCI/ADR-RES ovarian): 1.16 µM
- TGI (NCI/ADR-RES ovarian): 4.66 µM
- GI50 (OVCAR-8 ovarian): 5.21 µM
- TGI (OVCAR-8 ovarian): > 100 µM
- GI50 (RXF 393 renal): 8.88 µM
- TGI (RXF 393 renal): 66.8 µM
- GI50 (SF-295 CNS): 2.84 µM
- TGI (SF-295 CNS): 27.5 µM
- GI50 (SK-MEL-5 melanoma): 2.83 µM
- TGI (SK-MEL-5 melanoma): 37.7 µM
- GI50 (SNB-19 CNS): 49.2 µM
- TGI (SNB-19 CNS): > 100 µM
- GI50 (SR leukemia): 0.552 µM
- TGI (SR leukemia): > 100 µM

SMILES: O=[N+]([O-])c1ccc(C=NC2CCCCC2)cc1
- TGI (HOP-92 NSCLC): > 100 µM
- TGI (NCI-H23 lung): > 100 µM
- TGI (OVCAR-8 ovarian): > 100 µM
- TGI (RXF 393 renal): > 100 µM
- TGI (SF-295 CNS): > 100 µM
- TGI (SK-MEL-5 melanoma): > 100 µM
- TGI (SNB-19 CNS): > 100 µM
- TGI (SR leukemia): > 100 µM

SMILES: CCOC1Oc2ccc(C)cc2C(=O)/C1=C\Nc1ccc(C(N)=O)cc1 (stereo not given)
- GI50 (HOP-92 NSCLC): 79.9 µM
- TGI (HOP-92 NSCLC): > 100 µM
- GI50 (NCI-H23 lung): 17.4 µM
- TGI (NCI-H23 lung): 38.2 µM
- GI50 (NCI/ADR-RES ovarian): 17.7 µM
- TGI (NCI/ADR-RES ovarian): 44.7 µM
- GI50 (OVCAR-8 ovarian): 17.7 µM
- TGI (OVCAR-8 ovarian): 40.3 µM
- GI50 (RXF 393 renal): 22.9 µM
- TGI (RXF 393 renal): 49 µM
- GI50 (SF-295 CNS): 18.1 µM
- TGI (SF-295 CNS): 45.9 µM
- GI50 (SK-MEL-5 melanoma): 13.8 µM
- TGI (SK-MEL-5 melanoma): 30.2 µM
- GI50 (SNB-19 CNS): 18.4 µM
- TGI (SNB-19 CNS): > 100 µM

SMILES: CCCC1N2CCCCC2[C@@H]2c3[nH]c4ccccc4c3CCN12 (stereo not given in full)
- TGI (HOP-92 NSCLC): > 100 µM
- TGI (NCI-H23 lung): > 100 µM
- TGI (OVCAR-8 ovarian): > 100 µM
- TGI (RXF 393 renal): > 100 µM
- TGI (SF-295 CNS): > 100 µM
- TGI (SK-MEL-5 melanoma): > 100 µM
- TGI (SNB-19 CNS): > 100 µM

SMILES: CN(C)CCNC(=O)c1cccc2ccc(-c3ccncc3)nc12
- TGI (HOP-92 NSCLC): 7.31 µM
- TGI (NCI-H23 lung): 5.31 µM
- TGI (OVCAR-8 ovarian): > 100 µM
- TGI (RXF 393 renal): 7.85 µM
- TGI (SF-295 CNS): 14.8 µM
- TGI (SK-MEL-5 melanoma): 3.54 µM
- TGI (SNB-19 CNS): 9.5 µM

SMILES: CC(C)(CO)N1CCN(C(=S)Nc2ccccc2)CC1
- TGI (HOP-92 NSCLC): > 100 µM
- TGI (NCI-H23 lung): > 100 µM
- TGI (NCI/ADR-RES ovarian): > 100 µM
- TGI (OVCAR-8 ovarian): > 100 µM
- TGI (RXF 393 renal): > 100 µM
- TGI (SF-295 CNS): > 100 µM
- TGI (SK-MEL-5 melanoma): > 100 µM
- TGI (SNB-19 CNS): > 100 µM

SMILES: Cc1c(C(=O)C/C(=N/NC(=O)C[N+](C)(C)C)C(=O)Nc2ccc(Cl)cc2)[n+](=O)c2ccccc2n1O
- TGI (HOP-92 NSCLC): > 100 µM
- TGI (NCI-H23 lung): > 100 µM
- TGI (OVCAR-8 ovarian): > 100 µM
- TGI (RXF 393 renal): > 100 µM
- TGI (SF-295 CNS): > 100 µM
- TGI (SK-MEL-5 melanoma): > 100 µM
- TGI (SNB-19 CNS): > 100 µM
- TGI (SR leukemia): > 100 µM

SMILES: COCCCNC(=O)C1C(=O)C(=O)N(CCCOC)C1=O (stereo not given)
- TGI (HOP-92 NSCLC): > 100 µM
- TGI (NCI-H23 lung): > 100 µM
- TGI (OVCAR-8 ovarian): > 100 µM
- TGI (SF-295 CNS): > 100 µM
- TGI (SK-MEL-5 melanoma): > 100 µM
- TGI (SNB-19 CNS): > 100 µM
- TGI (SR leukemia): > 100 µM

SMILES: O=C(O)C(CS)Nc1c2ccccc2nc2ccccc12 (stereo not given)
- TGI (HOP-92 NSCLC): > 100 µM
- TGI (NCI-H23 lung): > 100 µM
- TGI (OVCAR-8 ovarian): > 100 µM
- TGI (RXF 393 renal): > 100 µM
- TGI (SF-295 CNS): > 100 µM
- TGI (SNB-19 CNS): > 100 µM
- TGI (SR leukemia): > 100 µM

SMILES: O=C1c2ccccc2C(=O)N1CCc1ncc[nH]1
- TGI (HOP-92 NSCLC): > 100 µM
- TGI (NCI-H23 lung): > 100 µM
- TGI (NCI/ADR-RES ovarian): > 100 µM
- TGI (OVCAR-8 ovarian): > 100 µM
- TGI (SF-295 CNS): > 100 µM
- TGI (SK-MEL-5 melanoma): > 100 µM
- TGI (SNB-19 CNS): > 100 µM
- TGI (SR leukemia): > 100 µM

SMILES: C[C@@H]1OC(=O)N2CCCC(=C3SCCCS3)C12 (stereo not given in full)
- TGI (HOP-92 NSCLC): 84.9 µM
- TGI (NCI-H23 lung): > 100 µM
- TGI (OVCAR-8 ovarian): > 100 µM
- TGI (RXF 393 renal): > 100 µM
- TGI (SF-295 CNS): > 100 µM
- TGI (SNB-19 CNS): > 100 µM

— PubChem BioAssay (NCI)
